Measured values published in patent US20120232070A1, “Use of Indole Derivatives as Nurr-1 Activators for the Application Thereof as a Medicament for the Treatment of Parkinson's Disease” (Laboratoires Fournier SA, priority 2009, published 2012).

Tests used:
[1] = target: hNurr1_RXRαFL (NURR1/RXRα heterodimer) (Homo sapiens, UniProt P19793+P43354); assay: Transactivation assay in Cos-7 cells, NURR-1-Gal4 / RXRα, luciferase reporter; type: cell-based; conditions: for Emax: COS-7, read-out: hNurr1_RXRαFL Eff (%), efficacy in % relative to the reference XCT0135908 at 2·10^−5 M (=100%); for EC50: Cos-7 cells, overnight incubation
Sequence of hNurr1_RXRαFL (NURR1/RXRα heterodimer) (P19793 whole entry, the tested form may be a part): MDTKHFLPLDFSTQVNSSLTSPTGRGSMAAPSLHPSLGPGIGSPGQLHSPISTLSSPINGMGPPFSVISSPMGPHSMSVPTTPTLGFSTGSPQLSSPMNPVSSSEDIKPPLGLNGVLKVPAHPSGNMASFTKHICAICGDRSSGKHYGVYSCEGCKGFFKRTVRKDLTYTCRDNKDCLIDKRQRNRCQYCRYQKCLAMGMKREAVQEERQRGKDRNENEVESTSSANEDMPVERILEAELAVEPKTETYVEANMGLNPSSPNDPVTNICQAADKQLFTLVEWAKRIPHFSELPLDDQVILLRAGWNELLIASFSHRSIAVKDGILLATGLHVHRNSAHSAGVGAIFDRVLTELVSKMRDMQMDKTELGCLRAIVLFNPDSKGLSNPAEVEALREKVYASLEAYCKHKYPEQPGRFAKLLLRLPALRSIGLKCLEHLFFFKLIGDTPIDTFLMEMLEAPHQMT
Sequence of hNurr1_RXRαFL (NURR1/RXRα heterodimer) (P43354 328-598): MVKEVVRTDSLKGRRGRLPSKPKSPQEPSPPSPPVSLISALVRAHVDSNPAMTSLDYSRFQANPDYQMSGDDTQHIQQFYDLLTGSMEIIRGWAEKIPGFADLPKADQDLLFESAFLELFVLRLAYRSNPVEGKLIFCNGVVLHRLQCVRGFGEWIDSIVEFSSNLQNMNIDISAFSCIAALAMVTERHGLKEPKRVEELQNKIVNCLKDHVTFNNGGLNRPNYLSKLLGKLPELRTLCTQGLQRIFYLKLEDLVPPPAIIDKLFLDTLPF
Outline: (§1)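 Cos-7 cells co-transfected with human NURR-1-Gal4 chimera, human RXRα or RXRγ, and 5Gal4pGL3-TK-Luc reporter; compounds added at 10^−4 to 3·10^−10 M final, overnight incubation, luciferase read. Induction over each heterodimer's baseline expressed as % of reference RXR agonist XCT0135908 (2·10^−5 M) taken as 100%.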

[2] = target: hNurr1_RXRγFL (NURR1/RXRγ heterodimer) (Homo sapiens, UniProt P43354+P48443); assay: Transactivation assay in Cos-7 cells, NURR-1-Gal4 / RXRγ, luciferase reporter; type: cell-based; conditions: for Emax: COS-7, read-out: hNurr1_RXRγFL Eff (%), efficacy in % relative to the reference XCT0135908 at 2·10^−5 M (=100%); for EC50: Cos-7 cells, overnight incubation
Sequence of hNurr1_RXRγFL (NURR1/RXRγ heterodimer) (P43354 328-598): as above
Sequence of hNurr1_RXRγFL (NURR1/RXRγ heterodimer) (P48443 whole entry, the tested form may be a part): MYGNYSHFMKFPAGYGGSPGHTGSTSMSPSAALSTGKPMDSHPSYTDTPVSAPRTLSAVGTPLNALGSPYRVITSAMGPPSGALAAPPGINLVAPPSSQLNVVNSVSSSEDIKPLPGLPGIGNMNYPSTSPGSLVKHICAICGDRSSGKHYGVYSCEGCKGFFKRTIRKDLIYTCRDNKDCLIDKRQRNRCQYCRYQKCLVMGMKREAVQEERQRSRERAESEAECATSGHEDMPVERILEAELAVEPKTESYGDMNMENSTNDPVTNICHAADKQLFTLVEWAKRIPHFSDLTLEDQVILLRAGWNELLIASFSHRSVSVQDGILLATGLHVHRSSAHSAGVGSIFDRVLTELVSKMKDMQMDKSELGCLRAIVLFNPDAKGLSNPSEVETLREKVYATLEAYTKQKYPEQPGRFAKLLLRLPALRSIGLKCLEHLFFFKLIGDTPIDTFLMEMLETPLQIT
Outline: as §1

[3] = tested on: mice treated with 1-methyl-4-phenyl-1,2,3,6-tetrahydropyridine (MPTP); assay: MPTP mouse model, dopamine in the striatum; type: in vivo, male C57BL6/J mice; conditions: oral, twice a day for 11 days; MPTP 25 mg/kg i.p. once a day for 5 days; FIGS. 1 and 2
Protocol: The compounds of examples 32 and 49 were assayed on a model of mice treated with 1-methyl-4-phenyl-1,2,3,6-tetrahydropyridine (MPTP) in order to confirm their potential activities. MPTP is a neurotoxin which causes permanent symptoms of Parkinson's disease by destroying certain neurons in the substantia nigra of the brain. The following procedure was used.
Male C57BL6/J mice aged 10-12 weeks at the start of the studies were distributed in groups of 8 animals. The compounds were administered orally, twice a day for a total of 11 days. Administration began 3 days before the treatment with the MPTP toxin at 25 mg/kg. MPTP was administered once a day by intraperitoneal injection for 5 days. Administration of the assayed compounds was continued for 3 days after the treatment with MPTP. One group of mice received the carrier only (0.5% solution of methylcellulose). The animals were euthanized after the last force-feeding and the striatum was removed. Dopamine was extracted from the striatum and the amount of dopamine (DA) expressed in ng per g of striatum (mean±SEM) was measured by high-performance liquid chromatography (HPLC) with electrochemical detection.

[4] = Plasma and cerebral pharmacokinetic profile after oral administration; type: in vivo, male C57B16 mouse; conditions: oral administration 10 mg/kg in the mouse; for Kp: male, C57B16, brain/plasma, read-out: Ratio AUCbrain/AUCplasma
Protocol: A first series of in vivo assays were conducted with some compounds according to the invention, for the purpose of determining their plasma and cerebral pharmacokinetic profile in the male C57B16 mouse and thus verify that the compounds were capable of crossing the blood-brain barrier. The following procedure was used.
Male C57B16 mice (25-30 g) obtained from the Janvier establishment, Le Genest-St-Isle, France were used for this study (12 mice per dose). The animals were fed with standard rodent feed (Purina Mills, St. Louis, Mo.), placed in cages and subjected to light/darkness cycles of 12 h/12 h, the temperature of the room being maintained at 22±2° C. and the humidity at 55±10%. The mice were not fasting before administration. Water was supplied ad libitum throughout the study. The assayed compound was administered orally at 10 mg/kg. For oral administration at 10 mg/kg, the animals were force-fed with 10 mL/kg of a suspension of the assayed compound, prepared in methylcellulose 400 cp 1%. The animals were euthanized by anaesthesia at intervals of 15 min, 30 min, 1 h, 3 h, 6 h and 8 h after force-feeding. At each interval, blood was collected and the brain was removed from each euthanized animal. 1 mL of blood collected in 1.5 mL tubes containing 20 μL of evaporated anticoagulant (solution of sodium heparinate at 1000 IU/mL) was centrifuged at 4500 g for 3 min, obtaining about 400 μL of plasma. The plasma was distributed in 2 aliquots of 200 μL which were stored at −20° C. until extraction by protein precipitation and then analysis by liquid chromatography coupled with tandem mass spectrometry (LC-MS/MS) for quantification of the assayed compound. The brains were immersed in liquid nitrogen directly after removal, then stored at −20° C. for analysis. The brains were then ground in the presence of aqueous/organic solvent mixture to obtain a homogenate. These homogenates were then centrifuged and the assayed compound was extracted from the supernatant by liquid-liquid extraction, then quantified by LC-MS/MS.
The pharmacokinetic parameters were determined according to a non-compartmental approach using Excel. The area under curve (AUC0-t) was determined by the linear trapezoidal method. This method allows estimation of the integral of the concentrations over an interval of time (AUC0-t) and is based on the sum of the areas of the trapeziums delimited by the concentrations measured at the time of sampling (example AUC0-8 h=AUC0-0.25 h+AUC0.25 h-0.5 h+AUC0.5 h-t+AUCt-8 h). The penetration of the compounds through the blood-brain barrier is assessed from the ratio of the AUC measured in the brain to that measured in plasma. As an example, with the compounds of examples 32 and 49, the following results were obtained: […]

Structure (SMILES)	Emax [1]	EC50 [1]	Emax [2]	EC50 [2]	melting point	effect on the MPTP-induced decrease of dopamine in the striatum [3]	Kp [4]	AUCbrain [4]	hNurr1_RXRαFL Eff (%) ([1]; efficacy in % relative to the reference XCT0135908 at 2·10^−5 M (=100%))
CC(C)c1ccc(S(=O)(=O)n2c(Cc3ccc(C(=O)O)c(F)c3)cc3cc(C(F)(F)F)ccc32)cc1 [Example 2, 2-fluoro-4-[[1-[[4-(1-methylethyl)phenyl]sulfonyl]-5-(trifluoromethyl)-1H-indol-2-yl]methyl]benzoic acid]	63%	657 nM	43%	724 nM	197 °C	–	–	–	–
CC(C)c1cccc(S(=O)(=O)n2c(Cc3ccc(C(=O)O)cc3)cc3cc(C(F)(F)F)ccc32)c1 [Example 32, 4-[[1-[[3-(1-methylethyl)phenyl]sulfonyl]-5-(trifluoromethyl)-1H-indol-2-yl]methyl]benzoic acid]	–	103 nM	62%	219 nM	–	dose-dependent decrease in the action of MPTP	0.8	3763 ng·h/mL	68%
CC(C)(C)c1cccc(S(=O)(=O)n2c(Cc3ccc(C(=O)O)cc3)cc3cc(C(F)(F)F)ccc32)c1 [Example 49, 4-[[1-[[3-(1,1-dimethylethyl)phenyl]sulfonyl]-5-(trifluoromethyl)-1H-indol-2-yl]methyl]benzoic acid]	73%	48 nM	71%	110 nM	–	dose-dependent decrease in the action of MPTP	0.8	10491 ng·h/mL	–
CC(C)(C)c1cccc(S(=O)(=O)n2c(Cc3ccc(C(=O)O)c(O)c3)cc3cc(C(F)(F)F)ccc32)c1 [Example 56]	82%	1160 nM	51%	417 nM	129 °C	–	–	–	–
CC(C)(C)c1cccc(S(=O)(=O)n2c(Cc3ccc(C(=O)O)cc3F)cc3cc(C(F)(F)F)ccc32)c1 [Example 67, 4-[[1-[[3-(1,1-dimethylethyl)phenyl]sulfonyl]-5-trifluoromethyl-1H-indol-2-yl]methyl]-3-fluorobenzoic acid]	73%	28 nM	75%	91 nM	177 °C	–	–	–	–
Cc1c(Cc2ccc(C(=O)O)s2)n(S(=O)(=O)c2cccc(C(C)(C)C)c2)c2ccc(C(F)(F)F)cc12 [Example 85, 5-[[1-[[3-(1,1-dimethylethyl)-phenyl]sulfonyl]-3-methyl-5-trifluoromethyl-1H-indol-2-yl]methyl]-thiophene-2-carboxylic acid]	87%	53 nM	73%	115 nM	171 °C	–	–	–	–
